The target in assay [1] is T1, HIV-1 reverse transcriptase (Human immunodeficiency virus type 1 group M subtype B, UniProt P03367).
T1 construct: Reverse transcriptase enzyme from the LAV strain of Human Immuno-deficiencyVirus (HIV-1); made in house; host or cells: E. coli JM109 (species of the strain is own knowledge), DNA clone pBRTprtl+ in expression vector pIBI21 (lac promoter)
In words: Reverse Transcriptase (RT) Assay (RNA-dependent DNA polymerase activity). Format: biochemical, Human Immunodeficiency Virus (HIV-1), LAV strain. The conditions noted are these: read-out: RT Inhibition (% @ 10 μg/ml). The source says: As stated before, the compounds of formula I inhibit the enzymatic activity of HIV-1 RT. Based upon testing of these compounds, as described below, it is known that they inhibit the RNA-dependent DNA polymerase activity of HIV RT.
Utilizing the Reverse Transcriptase (RT) Assay described below, compounds can be tested for their ability to inhibit the RNA-dependent DNA polymerase activity of HIV RT. Certain specific compounds, described in the Examples which appear below, were so tested.
Among the enzymes for which Human Immunodeficiency Virus (HIV-1) encodes is a reverse transcriptase (1), so-named because it transcribes a DNA copy from an RNA template. This activity can be quantitatively measured in a cell-free enzyme assay which has been previously described (2), and is based upon the observation that reverse transcriptase is able to use a synthetic template [poly r(C) primed with oligo d(G)] to transcribe a radio-labelled, acid-precipitable DNA strand utilizing ^3 H-dGTP as a substrate. […]
a) Preparation of the enzyme
Reverse transcriptase enzyme from the LAV strain of Human Immuno-deficiencyVirus (HIV-1) (1) was isolated from the bacterial strain JM109 (3) expressing the DNA clone pBRTprtl+(2) which is under the control of the lac promotor in the expression vector pIBI21 (4). An overnight culture grown in 2XYT medium (37° C., 225 rpm) (5) supplemented with […] ampicillin for positive selection is inoculated at a 1:40 dilution into M9 medium supplemented with 10 mg/ml thiamine, 0.5% casamino acids, and […] ampicillin (5). The culture is incubated (37° C., 225 rpm) until it reaches an OD540 of 0.3-0.4. At that time the repressor inhibitor IPTG (isopropyl b-D-thiogalactopyranoside) is added to 0.5 mM and incubated for 2 additional hours. Bacteria are pelletted, resuspended in a 50 mM Tris, 0.6 mM EDTA, 0.375M NaCl buffer and digested by the addition of lysozyme (1 mg/ml) for 30 minutes on ice. The cells are lysed by the addition to 0.2% NP-40 and brought to 1M NaCl.
After removal of the insoluble debris by centrifugation, the protein is precipitated by the addition of 3 volumes of saturated aqueous ammonium sulfate. The enzyme is pelleted, resuspended in RT buffer (50 mM Tris pH 7.5, 1 mM EDTA, 5 mMDTT, 0.1% NP-40, 0.1M NaCl, and 50% glycerol) and stored at -70° C. for further use. […]
b) Composition of 2X concentrated stock reaction mixture
Stock Reagent 2X Mix Concentration
[poly r(C)/oligo d(G)](5:1)
The 2X concentrated stock reaction mixture is aliquoted and stored at -20° C. The mixture is stable and thawed for use in each assay. This enzyme assay has been adapted to a 96 well microtiter plate system, and has been previously described (6). Tris buffer (50 mM, pH 7.4), vehicle (solvent diluted to match the compound dilution), or compounds in vehicle are dispensed into 96-well microtiter plates (10 μl/well; 3 wells/compound). The HIV RT enzyme is thawed, diluted in 50 mM Tris pH 7.4 so that fifteen μl of diluted enzyme contain 0.001 Unit (one unit is that amount of enzyme to transform 1 micromole of substrate per minute at 25° C.), and 15 μl are dispensed per well. Twenty μl of 0.12-0.5M EDTA are added to the first three wells of the microtiter plate. EDTA chelates the Mg^++ present and prevents reverse transcription. This group serves as background polymerization which is subtracted from all other groups. Twenty-five μl of the 2X reaction mixture are added to all wells and the assay is allowed to incubate at room temperature for 60 minutes. The assay is terminated by precipitating the DNA in each well with 50μl of 10% trichloracetic acid (TCA) in 1% sodium pyrophosphate. The microtiter plate is incubated for 15 minutes at 4° C. and the precipitate is fixed onto #30 glass fiber paper (Schleicher & Schuell) using a Skatron semi-automatic harvester. […]

A further assay has as its system HIV-1. Description: Human T Cell Culture Assay (HIV-1 induced syncytia formation in C8166 cells). Format: cell-based, HIV-1 HTLV-IIIB strain (human C8166 T-cells). The note with it: HTLV-IIIB, four days after virus challenge, compound concentration not given. As to the method: In order to confirm that compounds which are active in the RT Assay also have the ability to inhibit HIV replication in a living system, a compound of formula I was also tested in the human T-Cell Culture Assay described below.
Assay Theory: Formation of syncytia is a feature of in vitro cultures of CD4+ T-cells infected with HIV-1. In this assay, T-cells are treated with a putative replication inhibiting compound and then infected with HIV-1. After incubation the culture is checked for the formation of syncytia. The absence or reduction is the number of syncytia is used as a measure of the test compound's ability to inhibit HIV replication.
Assay Method: The target cells, designated C8166, are a subclone of human lymphoma cells of T-cell origin and are established at an initial density of 5×10^4 per 100 μl in RPMI 1640 (+10% fetal bovine serum) culture medium in 96 well flat bottom plates. A selected amount of test compound, dissolved in DMSO is included. After 24 hours, 50-100 TCID50 's (the dose that results in induced effect in 50% of test cultures) of the HTLV-IIIB strain of HIV-1 (2) are innoculated into each culture. Control cultures receive compound or virus only. […] The percent inhibition by the test compound is determined by comparison with control values. […]

Setting [2] is: 10 μg/ml, poly r(C)/oligo d(G) template, 60 minutes, room temperature.

Like-named read-outs stand apart in the source and are kept apart here.

For `CNc1ccc2c(c1)C(=O)N(C)c1ccccc1O2` [Example 26], the inhibition at 10 µg/mL in assay [1] (setting [2]) was determined as 75%.
For the compound `C=C(C)CN1C(=O)c2ccccc2Oc2ccccc21` [Example 11], the inhibition at 10 µg/mL in assay [1] (setting [2]) turned out to be 77%.
Same read-out and setting: in the case of `CCCN1C(=O)c2ccccc2Sc2ccccc21` [Example 5, 10-n-Propyl-Dibenz[b,f][1.4]Thiazepin-11(10H)-One] it was 98%.
On the same count and under the same terms, the same measure for `O=C1c2ccccc2Oc2ccccc2N1C(F)=CI` [Example 47]: 92%.
Still for that read-out and setting: the same measure for `Cc1ccc2c(c1)Oc1ccccc1C(=O)N2CC(N)=O` [Example 31]: 77%.
In the case of `CCN1C(=O)c2cc(N)ccc2Oc2ccc(Cl)cc21` [Example 20], the inhibition at 10 µg/mL in assay [1] (setting [2]) stood at 95%.
Same read-out and setting: in the case of `O=C1c2ccccc2Oc2ccccc2N1CC(F)(F)F` [Example 48] it was 87%; in that of `Nc1ccc2c(c1)C(=O)Nc1cc(Cl)ccc1O2` [Example 17], 67%; in that of `CN1C(=O)c2ccc(N)cc2Oc2ccccc21` [Example 25], 26%.
As to `CSCN1C(=O)c2ccc(Cl)cc2Oc2ccccc21` [Example 37], the inhibition at 10 µg/mL in assay [1] (setting [2]) was 98%.
Same read-out and setting: in the case of `C=CCN1C(=O)c2cc(N)ccc2Oc2ccccc21` [Example 27] it was 100%; in that of `COc1cccc2c1Oc1ccccc1N(CC(N)=O)C2=O` [Example 13], 32%; in that of `CNc1ccc2c(c1)C(=O)Nc1ccccc1O2` [Example 28], 30%.
Same read-out and setting: in the case of `Nc1ccc2c(c1)Oc1ccccc1C(=O)N2` [Example 21] it was 3%; in that of `CSCCN1C(=O)c2cc(Cl)ccc2Oc2ccccc21` [Example 41], 49%; in that of `Cc1ccc2c(c1)NC(=O)c1cc(N)ccc1O2` [Example 18], 71%.
The same measure, in the same setting: in the case of `CN1C(=O)c2cc(N)ccc2Oc2ccccc21` [Example 22] it was 99%; in that of `C[S+]([O-])CN1C(=O)c2ccccc2Oc2ccccc21` (stereo not drawn) [Example 35], 58%; in that of `C=CCN1C(=O)c2ccccc2Oc2ccccc21` [Example 9], 98%.
Consider `CSCCN1C(=O)c2ccccc2Oc2ccccc21` [Example 36], for which the inhibition at 10 µg/mL in assay [1] (setting [2]) turned out to be 85%.
Same read-out and setting: the same measure for `CCN1C(=O)c2ccccc2Oc2ccccc21` [Example 8]: 100%.
For the compound `Nc1ccc2c(c1)C(=O)Nc1ccccc1O2` [Example 14], the inhibition at 10 µg/mL in assay [1] (setting [2]) was 85%.
Same read-out and setting: the same measure for `CN1C(=O)c2ccccc2Oc2cc(N)ccc21` [Example 24]: 44%.
The same measure, in the same setting: the same measure for `CCOC(=O)CN1C(=O)c2ccccc2Oc2ccccc21` [Example 43]: 76%; for `CC(C)N1C(=O)c2ccccc2Oc2ccccc21` [Example 2, 10-Isopropyl-10H-Dibenz[b,f][1,4]Oxazepin-11-One]: 100%; for `COc1ccc2c(c1)Oc1cccc(OC)c1C(=O)N2` [Example 45]: 44%.
On the same count and under the same terms, in the case of `NC(=O)CN1C(=O)c2ccccc2Sc2ccccc21` [Example 50] it was 66%; in that of `CCOc1ccc2c(c1)Oc1ccccc1C(=O)N2CC` [Example 33], 74%.
Regarding `CCCN1C(=O)c2ccccc2Oc2ccccc21` [Example 1, 10-Propyl-10H-Dibenz[b,f][1,4]Oxazepin-11-One], the “T-Cell Culture Assay (% inhibition)” value in the assay with HIV-1 turned out to be 93%. In assay [1] (setting [2]), the inhibition at 10 µg/mL was 100%.
`CCC(=O)N1C(=O)c2ccccc2Oc2ccccc21` [Example 12]: the inhibition at 10 µg/mL in assay [1] (setting [2]) was found to be 44%.
For `C=CCN1C(=O)c2ccccc2Oc2cc(N)ccc21` [Example 29], in assay [1], the inhibition at 10 µg/mL amounted to 89%.
With `CSCN1C(=O)c2ccccc2Oc2ccccc21` [Example 34], the inhibition at 10 µg/mL in assay [1] (setting [2]) came to 100%.
As to `Cc1ccc2c(c1)Oc1ccc(N)cc1C(=O)N2` [Example 30], in assay [1] (setting [2]), the inhibition at 10 µg/mL was determined as 96%.
The same measure, in the same setting: the same measure for `COc1ccc2c(c1)Oc1ccccc1C(=O)N2` [Example 44]: 27%; for `CCOc1ccc2c(c1)Oc1ccccc1C(=O)N2C` [Example 32]: 77%; for `CN1C(=O)c2ccccc2Sc2ccccc21` [Example 49]: 94%.
Take `CN1C(=O)c2ccccc2Oc2ccccc21` [Example 10]: the inhibition at 10 µg/mL in assay [1] (setting [2]) came out at 93%.
Consider `Cc1ccc2c(c1)Oc1ccc(N)cc1C(=O)N2C` [Example 6, 2-Amino-7,10-Dimethyldibenz[b,f][1,4]Oxazepin-11(10H)-One], for which the inhibition at 10 µg/mL in assay [1] came out at 100%.
Consider `NC(=O)CN1C(=O)c2cc(N)ccc2Oc2ccccc21` [Example 15], for which, in assay [1] (setting [2]), the inhibition at 10 µg/mL was 82%.
On the same count and under the same terms, the same measure for `O=C1Nc2ccccc2Oc2ccccc21` [Example 7]: 22%; for `O=C1c2ccccc2Oc2ccccc2N1CCF` [Example 46]: 93%; for `CCOc1ccc2c(c1)Oc1ccccc1C(=O)N2` [Example 42]: 30%.
The same measure, in the same setting: the same measure for `Nc1ccc2c(c1)Oc1ccccc1NC2=O` [Example 23]: 25%; for `Cc1ccc2c(c1)Oc1ccccc1C(=O)N2C[S+](C)[O-]` (stereo not drawn) [Example 40]: 77%.
For the compound `CCN1C(=O)c2cc(N)ccc2Oc2ccccc21` [Example 16], the inhibition at 10 µg/mL in assay [1] (setting [2]) is 100%.
In the case of `CCN1C(=O)c2cc(N)ccc2Oc2ccc(C)cc21` [Example 19], the inhibition at 10 µg/mL in assay [1] (setting [2]) amounted to 100%.
Still for that read-out and setting: the same measure for `CSCCN1C(=O)c2ccccc2Oc2cc(C)ccc21` [Example 39]: 95%; for `CCCN1C(=S)c2ccccc2Oc2ccccc21` [Example 3, 10 -Propyl-10H-Dibenz [b,f][1,4]Oxazepin-11-Thione]: 94%.
Same read-out and setting: the same measure for `O=C1Nc2ccccc2Sc2ccccc21` [Example 4, Dibenz[b,f][1,4]Thiazepin-11(10H)-One]: 43%.
On the same count and under the same terms, in the case of `CSCCN1C(=O)c2ccc(Cl)cc2Oc2ccccc21` [Example 38] it was 83%.

Values taken from patent US5571806A, “Dibenz[b,f][1,4]oxazepin(and thiazepin)-11(10H)-ones and-thiones and their use in the prevention or treatment of HIV infection” (Boehringer Ingelheim Pharmaceuticals, Inc., priority 1994, dated 1996).
